Measured values from patent US11214578B2, “Urea/carbamates FAAH MAGL or dual FAAH/MAGL inhibitors and uses thereof” (Northeastern University, priority 2014, dated 2022).

Legend:
Human FAAH (MBPΔTMhFAAH) = target: T1, Human FAAH (MBPΔTMhFAAH) (Homo sapiens, UniProt O00519); experiment: Fluorescent assay protocol for hFAAH; assay type: biochemical; details: human FAAH (MBP fusion, ΔTM), procedure as for rFAAH
T1 construct: made in house; host or cells: E. coli (pMALcE4 vector)
T1 sequence (O00519 30-579 limits assumed): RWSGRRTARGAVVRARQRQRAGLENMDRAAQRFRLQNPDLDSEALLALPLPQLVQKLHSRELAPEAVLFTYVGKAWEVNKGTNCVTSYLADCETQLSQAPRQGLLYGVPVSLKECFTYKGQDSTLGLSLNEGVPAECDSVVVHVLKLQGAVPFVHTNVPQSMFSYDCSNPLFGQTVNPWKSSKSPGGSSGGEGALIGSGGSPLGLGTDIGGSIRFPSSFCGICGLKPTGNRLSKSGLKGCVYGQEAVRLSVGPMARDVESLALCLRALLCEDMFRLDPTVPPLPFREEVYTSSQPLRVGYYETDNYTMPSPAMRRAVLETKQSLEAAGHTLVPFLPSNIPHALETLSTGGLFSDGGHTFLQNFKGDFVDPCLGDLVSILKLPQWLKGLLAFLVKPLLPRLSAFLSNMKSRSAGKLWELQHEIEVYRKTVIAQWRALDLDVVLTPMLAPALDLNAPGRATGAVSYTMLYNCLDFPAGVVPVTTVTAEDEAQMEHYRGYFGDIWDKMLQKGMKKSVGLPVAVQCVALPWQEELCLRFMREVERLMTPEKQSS
Method in brief: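 MBP-fused ΔTM human FAAH from E. coli, pre-incubated 15 min at 25 °C with compound in 50 mM HEPES, 1 mM EDTA, 0.1% BSA, pH 7.4 (DMSO below 8%). Substrate AAMCA 20 μM (2×Km); fluorescence (ex 360/em 460) at 3 h gave % inhibition vs uninhibited control, triplicate, IC50 fitted.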

Human MAGL (hMAGL) = target: T2, Human MAGL (hMAGL) (Homo sapiens, UniProt Q99685); experiment: Fluorescent assay protocol for hMAGL (AHMMCE substrate); assay type: biochemical; details: recombinant human MAGL, AHMMCE substrate, 15 min preincubation; read-out: IC50 hMAGL
T2 construct: hexahistidine; made in house; host or cells: E. coli
T2 sequence (Q99685 1-303): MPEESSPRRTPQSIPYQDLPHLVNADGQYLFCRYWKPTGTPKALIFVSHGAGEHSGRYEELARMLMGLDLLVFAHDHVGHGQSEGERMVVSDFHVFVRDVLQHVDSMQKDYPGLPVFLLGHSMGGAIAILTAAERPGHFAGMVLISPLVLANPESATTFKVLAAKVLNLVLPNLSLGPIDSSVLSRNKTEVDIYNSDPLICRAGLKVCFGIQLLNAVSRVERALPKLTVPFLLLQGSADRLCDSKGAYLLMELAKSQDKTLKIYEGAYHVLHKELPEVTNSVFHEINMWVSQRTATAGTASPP
Method in brief: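 Hydrolysis of AHMMCE by human MAGL was monitored at 25°C for 120 min, with fluorescence at 360/460 nm recorded every 15 min and converted to 4-methylcoumarin using external standards. IC50 values were derived from triplicate wells at each inhibitor concentration.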

[1] = Blood brain barrier (BBB) permeability studies; details: brain and plasma; blood-brain distribution, in vivo; read-out: brain/plasma ratio
Description: Novel compounds were studied for their abilities to cross the blood brain barrier based on procedures adapted from Cluny, et al (2010), British journal of pharmacology 161: 629; Rahn, et al (2011) Pharmacology biochemistry, and behavior 98: 493; Wood et al (2013) Life sciences 92: 482.

ΔTM rat FAAH = target: T3, ΔTM rat FAAH (Rattus norvegicus, UniProt P97612); experiment: Fluorescent assay protocol for ΔTM rat FAAH (AAMCA substrate); assay type: biochemical; details: 15 min preincubation, read-out: IC50 rFAAH
T3 construct: Preparation of Transmembrane Domain-Deleted Rat FAAH (ΔTM rFAAH); made in house; host or cells: E. coli
T3 sequence (P97612 30-579 limits assumed): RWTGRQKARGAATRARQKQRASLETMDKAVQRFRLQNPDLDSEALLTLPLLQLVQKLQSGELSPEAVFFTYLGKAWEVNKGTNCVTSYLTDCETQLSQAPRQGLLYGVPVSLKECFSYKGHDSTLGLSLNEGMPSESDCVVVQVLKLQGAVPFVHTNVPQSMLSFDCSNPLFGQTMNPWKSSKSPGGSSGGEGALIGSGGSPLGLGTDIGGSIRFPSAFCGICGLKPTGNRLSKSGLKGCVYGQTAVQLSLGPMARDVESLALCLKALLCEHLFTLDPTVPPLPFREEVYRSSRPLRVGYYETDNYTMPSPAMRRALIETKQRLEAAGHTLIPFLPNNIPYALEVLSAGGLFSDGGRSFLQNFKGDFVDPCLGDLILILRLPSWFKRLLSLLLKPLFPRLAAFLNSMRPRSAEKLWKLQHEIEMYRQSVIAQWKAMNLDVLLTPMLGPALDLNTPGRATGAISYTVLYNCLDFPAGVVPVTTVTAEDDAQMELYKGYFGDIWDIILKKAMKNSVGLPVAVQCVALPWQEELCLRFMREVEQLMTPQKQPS
Method in brief: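 ΔTM rat FAAH (15 μg) was pre-incubated 15 min at 25° C with compound (screening at 1, 10 and 100 μM), then reacted with the fluorigenic substrate AAMCA. Percent inhibition came from fluorescence at 3 h (linear kinetics) relative to no-inhibitor controls, in triplicate.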

Rat MAGL (rMAGL) = target: T4, Rat MAGL (rMAGL) (Rattus norvegicus, UniProt Q8R431); experiment: Fluorescent assay protocol for rMAGL; assay type: biochemical; details: recombinant rat MAGL, procedure as for hMAGL; read-out: IC50 rMAGL
T4 construct: made in house; host or cells: E. coli
T4 sequence (Q8R431 1-303): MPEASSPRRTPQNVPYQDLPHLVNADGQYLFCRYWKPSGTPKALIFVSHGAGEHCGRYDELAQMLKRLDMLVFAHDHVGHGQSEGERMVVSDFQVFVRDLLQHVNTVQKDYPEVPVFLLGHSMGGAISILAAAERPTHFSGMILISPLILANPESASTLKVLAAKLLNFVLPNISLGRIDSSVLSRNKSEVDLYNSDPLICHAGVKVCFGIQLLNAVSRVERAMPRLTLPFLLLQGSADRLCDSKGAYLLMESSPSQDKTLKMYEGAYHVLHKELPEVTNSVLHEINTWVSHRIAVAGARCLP
Method in brief: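 Rat MAGL run as for the human enzyme: AHMMCE substrate hydrolysis to fluorescent coumarin followed at 25° C. for 120 min, read every 15 min at 360/460 nm.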

[2] = system: human prostate cancer PC-3M cells; experiment: Xenograft model of advanced prostate cancer; assay type: in vivo, mouse; details: nude mice, PC-3M xenograft, 20 mg/kg daily i.p. for 21 days
Method: Compounds were studied for their abilities to retard tumor growth in mouse xenograft model expressing aggressive human prostate cancer PC-3M cells. Tumors were established in immunodeficient nude mice (Taconic Farms) according to standard protocol and mice were divided in two groups. Mouse in each group was injected intraperitoneally (i.p.) with vehicle or compounds (20 mg/kg daily) for 21 days. Tumor sizes were measured with callipers every 3 days.

[3] = system: LiCl-induced anticipatory nausea in rats; experiment: Anticipatory nausea studies (LiCl-paired context, gapes); assay type: in vivo, rat; details: for amelioration of LiCl-induced anticipatory nausea: 20 mg/Kg; for Mean number of gapes elicited by a LiCl-paired context: 20 mg/Kg pretreatment, vehicle 22 gapes
Description: Novel compounds were studied for their ability to ameliorate LiCl-induced anticipatory nausea in rats following the procedures described in Limebeer, C. L. et al Psychopharmacology (2014) 231:603-612. […] Mean number of gapes elicited by a LiCl-paired context in an anticipatory nausea test following pretreatment with a MAGL inhibitor compound 46 and dual FAAH/MAGL inhibitor 52 were 8 and 3 respectively, compared to animals treated with vehicle which show 22 gapes.

SMILES | IC50 (Human FAAH (MBPΔTMhFAAH)) [nM] | IC50 (Human MAGL (hMAGL)) [nM] | Kp [1] | IC50 (ΔTM rat FAAH) [nM] | IC50 (Rat MAGL (rMAGL)) [nM] | reduction in tumor sizes ([2]; compared to vehicle) [%] | tumor sizes ([2]; vehicle 185 mm^3) [mm^3] | amelioration of LiCl-induced anticipatory nausea [3] | Mean number of gapes elicited by a LiCl-paired context [3]
C[C@H]1CN(C(=O)Nc2cccc(-c3cccc(C(N)=O)c3)c2)CCN1Cc1ccc2ccccc2n1 [Example 1, (S)—N-(3′-carbamoyl-[1,1′-biphenyl]-3-yl)-3-methyl-4-(quinolin-2-ylmethyl) piperazine-1-carboxamide] | 10 to 100 | > 1000 | 0.03 | 10 to 100 | > 1000 |  |  |  | 
NC(=O)c1cccc(-c2cccc(NC(=O)N3CCC(c4ccccc4)CC3)c2)c1 [Example 7, N-(3′-carbamoyl-[1,1′-biphenyl]-3-yl)-4-phenylpiperidine-1-carboxamide] | 10 to 100 | > 1000 | 0.17 | 10 to 100 | > 1000 |  |  |  | 
N#Cc1cccc(OC(=O)N2CCC(C(c3ccccc3)c3ccccc3)CC2)c1 [Example 46, 3-Cyanophenyl 4-benzhydrylpiperidine-1-carboxylate] | 10 to 100 |  |  | 10 to 100 |  | 43 | 105 | ameliorated anticipatory nausea | 8
N#Cc1cccc(OC(=O)N2CCC(Cc3ccccc3)CC2)c1 [Example 52, 3-cyanophenyl 4-benzylpiperidine-1-carboxylate] | 10 to 100 |  | 0.71 |  |  |  |  | ameliorated anticipatory nausea | 3
N#Cc1cccc(-c2cccc(NC(=O)N3C[C@@H]4C[C@H]3CN4Cc3ccc4ccccc4n3)c2)c1 [Example 93, (1S,4S)—N-(3′-cyano-[1,1′-biphenyl]-3-yl)-5-(quinolin-2-ylmethyl)-2,5-diazabicyclo[2.2.1]heptane-2-carboxamide] | > 1000 | > 1000 |  | > 1000 | > 1000 |  |  |  | 
N#Cc1cccc(-c2cccc(NC(=O)N3C[C@@H]4C[C@H]3CN4Cc3cccc(-c4ccccc4)c3)c2)c1 [Example 94, (1S,4S)-5-([1,1′-biphenyl]-3-ylmethyl)-N-(3′-cyano-[1,1′-biphenyl]-3-yl)-2,5-diazabicyclo[2.2.1]heptane-2-carboxamide] | 110 to 1000 | > 1000 |  | 110 to 1000 | > 1000 |  |  |  | 
O=C(N1C[C@@H]2C[C@H]1CN2c1ccccn1)n1cnc(-c2ccccc2)c1 [Example 96, (4-phenyl-1H-imidazol-1-yl)((1S,4S)-5-(pyridin-2-yl)-2,5-diazabicyclo[2.2.1]heptan-2-yl)methanone] | 10 to 100 | > 1000 |  | 10 to 100 | > 1000 |  |  |  | 
O=C(N1C[C@@H]2C[C@H]1CN2c1cccc(F)c1)n1cnc(-c2ccccc2)c1 [Example 97, ((1 S,4S)-5-(3-fluorophenyl)-2,5-diazabicyclo[2.2.1]heptan-2-yl)(4-phenyl-1H-imidazol-1-yl)methanone] | 110 to 1000 | > 1000 |  | 110 to 1000 | > 1000 |  |  |  | 
O=C(N1C[C@@H]2C[C@H]1CN2Cc1cccc(-c2ccccc2)c1)n1cnc(-c2ccccc2)c1 [Example 99, ((1S,4S)-5-([1,1′-biphenyl]-3-ylmethyl)-2,5-diazabicyclo[2.2.1]heptan-2-yl)(4-phenyl-1H-imidazol-1-yl)methanone] | 110 to 1000 | > 1000 |  | 10 to 100 | > 1000 |  |  |  | 
O=C(N1C[C@@H]2C[C@H]1CN2Cc1cccc(-c2ccccc2)c1)n1cnc(Br)c1 [Example 100, ((1S,4S)-5-([1,1′-biphenyl]-3-ylmethyl)-2,5-diazabicyclo[2.2.1]heptan-2-yl)(4-bromo-1H-imidazol-1-yl)methanone] | 10 to 100 | > 1000 |  | 10 to 100 | > 1000 |  |  |  | 
O=C(Oc1ccccc1)N1C[C@@H]2C[C@H]1CN2Cc1cccc(-c2ccccc2)c1 [Example 101, phenyl (1S,4S)-5-([1,1′-biphenyl]-3-ylmethyl)-2,5-diazabicyclo[2.2.1]heptane-2-carboxylate] | 10 to 100 | > 1000 |  | 10 to 100 | > 1000 |  |  |  | 
